Source: patent US20230406865A1, “CRYSTAL FORM OF FREE BASE OF INHIBITOR CONTAINING BICYCLIC RING DERIVATIVE AND PREPARATION METHOD AND APPLICATION OF CRYSTAL FORM” (SHANGHAI HANSOH BIOMEDICAL CO., LTD., priority 2020, published 2023)

Columns and labels:
Ba/F3 KIF5B-RET cells = molecular target: T1, Ba/F3 KIF5B-RET cells (Homo sapiens, UniProt P07949); assay: Inhibition of proliferation of Ba/F3 KIF5B-RET cells (CellTiter-Glo); type: cell-based; conditions: 72 to 144 hours
T1 construct: fused on or other part: P33176 (Kinesin-1 heavy chain)
T1 sequence (P07949 whole entry, change not shown, the tested form may be a part): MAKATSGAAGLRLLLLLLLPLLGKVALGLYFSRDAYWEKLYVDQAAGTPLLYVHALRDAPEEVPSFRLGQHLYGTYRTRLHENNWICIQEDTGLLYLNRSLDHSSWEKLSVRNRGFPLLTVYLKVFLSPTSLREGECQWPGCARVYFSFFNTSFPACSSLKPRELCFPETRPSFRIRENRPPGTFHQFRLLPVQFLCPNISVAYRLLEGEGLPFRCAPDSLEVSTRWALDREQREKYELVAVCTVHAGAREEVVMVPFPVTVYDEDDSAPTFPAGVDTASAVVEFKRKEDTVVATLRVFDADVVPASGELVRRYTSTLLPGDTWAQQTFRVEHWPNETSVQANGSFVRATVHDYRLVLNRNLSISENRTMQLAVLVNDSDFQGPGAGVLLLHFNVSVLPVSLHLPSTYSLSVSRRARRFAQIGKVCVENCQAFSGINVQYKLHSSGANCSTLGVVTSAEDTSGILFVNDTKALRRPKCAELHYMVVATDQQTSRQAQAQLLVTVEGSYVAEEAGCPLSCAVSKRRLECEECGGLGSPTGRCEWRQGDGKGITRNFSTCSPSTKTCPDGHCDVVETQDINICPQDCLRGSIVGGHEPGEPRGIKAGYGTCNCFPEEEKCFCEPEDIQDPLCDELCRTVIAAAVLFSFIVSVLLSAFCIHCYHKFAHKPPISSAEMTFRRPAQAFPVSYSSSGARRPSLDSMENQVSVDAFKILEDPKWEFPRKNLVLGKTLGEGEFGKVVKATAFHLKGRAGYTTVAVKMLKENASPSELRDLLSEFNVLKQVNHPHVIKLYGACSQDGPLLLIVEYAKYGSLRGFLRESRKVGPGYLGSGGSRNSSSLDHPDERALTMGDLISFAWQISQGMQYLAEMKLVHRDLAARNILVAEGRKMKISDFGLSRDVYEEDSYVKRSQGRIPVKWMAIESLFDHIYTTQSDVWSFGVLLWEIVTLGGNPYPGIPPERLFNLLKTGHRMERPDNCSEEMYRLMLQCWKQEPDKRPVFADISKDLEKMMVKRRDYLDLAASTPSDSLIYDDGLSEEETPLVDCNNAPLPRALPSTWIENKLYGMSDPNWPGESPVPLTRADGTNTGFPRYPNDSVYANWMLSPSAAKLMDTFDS
How it was run: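 Cells plated overnight, then exposed to compound dilutions in DMSO/medium at 37° C, 5% CO2 for 72 to 144 hours. Viability read by CellTiter-Glo luminescence; IC50 from inhibition rates fitted by nonlinear regression.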

[1] = system: subcutaneous transplanted tumor of Ba/F3 KIF5B-RET cells; assay: Tumor suppression on Ba/F3 KIF5B-RET transplanted tumor model; type: in vivo, BALB/c nude mice
Procedure: Ba/F3 KIF5B-RET cells were removed from the cell bank, resuscitated and added to RPMI1640 medium (RPMI1640+10% FBS+1% Glu+1% P/S), then cultured in a CO2 incubator (incubator temperature was 37° C., CO2 concentration was 5%), and when the cell number expanded to the required number for in vivo inoculation, Ba/F3 KIF5B-RET cells were collected. The cells were counted with an automatic cell counter, resuspended with PBS according to the count results, made into a cell suspension (density was 2×10^7/mL), and placed in an ice box for use.
Female BALB/c nude mice aged 6-8 weeks were used, weighing about 18-22 g. Mice were reared in SPF animal room, and were reared in a single cage with 5 mice in each cage. All cages, bedding and water were sterilized at high temperature before use, and all animals were allowed to eat and drink freely. Nude mice were labeled with disposable universal ear tags for mice and rats before the start of the experiment, and the skin of the inoculation site was disinfected with 75% medical alcohol before inoculation. 0.1 mL (containing 2*10^6 cells) of Ba/F3 KIF5B-RET cells were inoculated subcutaneously on the right back of each mouse. Group administration was initiated when the tumor volume reached 60-200 mm^3, with 5 mice in each group. Each test compound was administered orally twice a day for 14 days. The tumor volume and the weight of mice were measured twice a week, and the tumor TGI (%) was calculated.
The tumor volume (mm^3) was calculated as V=0.5*D*d*d, where D and d were the long and short diameters of the tumor, respectively.
When there was no tumor regression, TGI (%)=[(1-(mean tumor volume at the end of the administration in a treatment group−mean tumor volume at the start of administration in the treatment group))/(mean tumor volume at the end of treatment in the solvent control group−mean tumor volume at the start of treatment in the solvent control group)]×100%.
When there was tumor regression, TGI (%)=[1-(mean tumor volume at the end of administration in a treatment group−mean tumor volume at the beginning of administration in the treatment group)/mean tumor volume at the beginning of administration in the treatment group]×100%.

KDR kinase = molecular target: T2, KDR kinase (Homo sapiens, UniProt P35968); assay: HTRF kinase activity inhibition, KDR; type: biochemical; conditions: for IC50: HTRF, ATP at Km; for Ratio (KDR/RET): KDR IC50 / RET IC50
T2 construct: purchased Carna 08-191
T2 sequence (P35968 20-1356): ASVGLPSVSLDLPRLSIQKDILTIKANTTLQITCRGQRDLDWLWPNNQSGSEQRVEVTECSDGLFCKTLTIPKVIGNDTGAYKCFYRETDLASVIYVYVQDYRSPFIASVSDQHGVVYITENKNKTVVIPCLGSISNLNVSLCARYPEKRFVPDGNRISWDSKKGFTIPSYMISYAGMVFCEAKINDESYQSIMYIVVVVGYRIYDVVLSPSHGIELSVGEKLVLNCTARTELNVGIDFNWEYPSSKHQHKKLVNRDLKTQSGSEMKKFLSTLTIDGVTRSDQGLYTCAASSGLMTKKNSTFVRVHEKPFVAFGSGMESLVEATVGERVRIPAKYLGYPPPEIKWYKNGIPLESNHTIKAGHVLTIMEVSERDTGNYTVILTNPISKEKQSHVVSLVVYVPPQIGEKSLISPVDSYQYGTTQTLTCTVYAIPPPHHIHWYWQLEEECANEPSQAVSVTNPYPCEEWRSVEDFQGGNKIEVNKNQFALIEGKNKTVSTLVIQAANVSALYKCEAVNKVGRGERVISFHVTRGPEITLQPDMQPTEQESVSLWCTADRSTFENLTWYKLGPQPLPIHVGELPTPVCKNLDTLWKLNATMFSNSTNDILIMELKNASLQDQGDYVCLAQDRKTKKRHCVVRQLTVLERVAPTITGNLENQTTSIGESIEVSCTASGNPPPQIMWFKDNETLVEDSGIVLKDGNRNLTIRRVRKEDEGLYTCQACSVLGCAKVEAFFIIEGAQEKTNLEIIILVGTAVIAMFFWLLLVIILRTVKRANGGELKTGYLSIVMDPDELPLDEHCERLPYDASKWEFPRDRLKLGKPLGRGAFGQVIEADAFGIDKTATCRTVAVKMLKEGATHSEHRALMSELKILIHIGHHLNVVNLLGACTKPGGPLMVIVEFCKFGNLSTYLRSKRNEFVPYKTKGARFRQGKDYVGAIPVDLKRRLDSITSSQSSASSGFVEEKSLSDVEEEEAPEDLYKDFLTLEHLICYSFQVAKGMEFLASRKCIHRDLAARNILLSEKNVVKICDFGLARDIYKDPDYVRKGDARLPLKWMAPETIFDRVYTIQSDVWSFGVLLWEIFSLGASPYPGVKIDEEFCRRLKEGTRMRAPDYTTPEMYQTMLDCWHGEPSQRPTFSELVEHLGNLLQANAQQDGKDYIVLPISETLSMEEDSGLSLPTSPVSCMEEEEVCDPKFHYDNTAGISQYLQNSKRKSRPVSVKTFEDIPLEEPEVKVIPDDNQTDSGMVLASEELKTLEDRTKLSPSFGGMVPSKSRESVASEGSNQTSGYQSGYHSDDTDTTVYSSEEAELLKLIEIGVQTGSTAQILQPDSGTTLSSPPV
How it was run: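 Inhibition of KDR kinase activity measured by homogeneous time-resolved fluorescence with a tyrosine-kinase KinEASE substrate kit and ATP.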

RET M918T = molecular target: T3, RET M918T (Homo sapiens, UniProt P07949, M918T); assay: HTRF kinase activity inhibition, RET M918T; type: biochemical; conditions: ATP at Km
T3 construct: purchased Carna 08-508
T3 sequence (P07949 29-1114 M918T): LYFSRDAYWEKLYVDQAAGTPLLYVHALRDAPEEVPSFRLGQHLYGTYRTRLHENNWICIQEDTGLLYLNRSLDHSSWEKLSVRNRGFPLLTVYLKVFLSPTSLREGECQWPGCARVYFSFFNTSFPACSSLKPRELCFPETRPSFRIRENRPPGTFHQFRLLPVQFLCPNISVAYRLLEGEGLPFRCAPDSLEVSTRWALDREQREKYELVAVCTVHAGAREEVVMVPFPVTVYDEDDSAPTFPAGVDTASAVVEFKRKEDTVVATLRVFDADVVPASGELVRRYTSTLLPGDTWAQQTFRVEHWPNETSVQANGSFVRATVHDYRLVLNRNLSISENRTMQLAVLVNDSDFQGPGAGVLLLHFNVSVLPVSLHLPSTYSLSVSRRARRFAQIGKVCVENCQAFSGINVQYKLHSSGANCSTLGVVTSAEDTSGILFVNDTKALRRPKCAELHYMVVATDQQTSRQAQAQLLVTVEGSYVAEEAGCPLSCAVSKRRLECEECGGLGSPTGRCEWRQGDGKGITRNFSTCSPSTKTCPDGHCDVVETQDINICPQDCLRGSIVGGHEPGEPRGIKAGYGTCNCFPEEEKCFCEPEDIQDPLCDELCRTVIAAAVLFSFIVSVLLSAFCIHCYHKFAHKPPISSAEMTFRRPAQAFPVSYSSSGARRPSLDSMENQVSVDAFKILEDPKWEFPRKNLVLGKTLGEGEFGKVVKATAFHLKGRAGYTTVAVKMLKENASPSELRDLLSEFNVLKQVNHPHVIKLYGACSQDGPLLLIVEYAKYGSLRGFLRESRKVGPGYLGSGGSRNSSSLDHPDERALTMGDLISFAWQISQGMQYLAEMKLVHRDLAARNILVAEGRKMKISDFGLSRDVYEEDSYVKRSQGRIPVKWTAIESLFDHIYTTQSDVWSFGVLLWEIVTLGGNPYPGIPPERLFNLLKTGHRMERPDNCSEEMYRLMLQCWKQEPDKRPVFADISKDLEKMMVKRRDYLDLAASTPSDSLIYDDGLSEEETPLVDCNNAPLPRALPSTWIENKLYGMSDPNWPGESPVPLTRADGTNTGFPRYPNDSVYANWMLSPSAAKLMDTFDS
From the text: (§1) 2.2 Experimental Reagents: • RET enzyme was purchased from Carna Company, and the article number was 08-159; • RET M918T enzyme was purchased from Carna Company, and the article number was 08-508; • KIF5B-RET was purchased from SignalChem Company, the article number was R02-19FG-05; • CCDC6-RET was purchased from SignalChem Company, the article number was R02-19BG-05; • RET V804M enzyme was purchased from Thermofisher Company, and the article number was PV6223; • RET V804L enzyme was purchased from Thermofisher Company, and the article number was PV4397; • HTRF KinEASE-TK kit was purchased from Cisbio Company, and the article number was 62TK0PEC; • ATP was purchased from Thermofisher Company, and the article number was PV3227; • 384-well plate was purchased from PerkinElmer Company, and the article number was 6007290.
(§2) In this experiment, a homogeneous time-resolved fluorescence (HTRF) method was used for the detection of compounds on RET kinase activity.

RET V804L = molecular target: T4, RET V804L (Homo sapiens, UniProt P07949, V804L); assay: HTRF kinase activity inhibition, RET V804L; type: biochemical; conditions: ATP at Km
T4 construct: purchased Thermofisher PV4397
T4 sequence (P07949 29-1114 V804L): as the sequence (P07949 29-1114 M918T) above, with V776L, T890M counted along it
From the text: as §1, §2

RET kinase = molecular target: T5, RET kinase (Homo sapiens, UniProt P07949); assay: HTRF kinase activity inhibition, RET wild-type; type: biochemical; conditions: ATP at Km
T5 construct: purchased Carna 08-159
T5 sequence (P07949 29-1114): as the sequence (P07949 29-1114 M918T) above, with T890M counted along it
How it was run: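 HTRF (KinEASE-TK) kinase assay with recombinant RET wild-type, RET V804M, RET V804L and KIF5B-RET enzymes plus ATP.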

| SMILES | IC50 (Ba/F3 KIF5B-RET cells) [nM] | Tumor volume (Mean ± SD) Day 0 ([1]; 10 mg/kg oral twice a day) [mm^3] | TGI (%) Day 14 ([1]; 10 mg/kg oral twice a day) [%] | Tumor volume (Mean ± SD) Day 14 ([1]; 10 mg/kg oral twice a day) [mm^3] | IC50 (KDR kinase) [nM] | Ratio (KDR/RET) (KDR kinase) | IC50 (RET M918T) [nM] | IC50 (RET V804L) [nM] | IC50 (RET kinase) [nM] | Tumor volume (Mean ± SD) Day 0 ([1]; 30 mg/kg oral twice a day) [mm^3] | TGI (%) Day 14 ([1]; 30 mg/kg oral twice a day) [%] | Tumor volume (Mean ± SD) Day 14 ([1]; 30 mg/kg oral twice a day) [mm^3] |
| --- | --- | --- | --- | --- | --- | --- | --- | --- | --- | --- | --- | --- |
| C#C[C@](C)(O)COc1cc(-c2ccc(N3CC4CC(C3)N4Cc3ccc(OC)nc3)nc2)c2c(C#N)cnn2c1 [Embodiment 64, 6-(((S)-2-hydroxy-2-methylbut-3-yn-1-yl)oxy)-4-(6-(6-((6-methoxypyridin-3-yl)methyl)-3,6-diazabicyclo[3.1.1]heptan-3-yl)pyridin-3-yl)pyrazolo[1,5-a]pyridine-3-carbonitrile] | 22.6 | 126.93 ± 16.98 | 88.39 | 330.85 ± 147.00 | 44.3 | 118 | 0.17 | 0.23 | 0.38 | – | – | – |
| COc1ncc(CN2C3CC2CN(c2ccc(-c4cc(C#CC(C)(C)O)cn5ncc(C#N)c45)cn2)C3)cc1F [Embodiment 18, 4-(6-(6-((5-Fluoro-6-methoxypyridin-3-yl)methyl)-3,6-diazabicyclo[3.1.1]heptan-3-yl)pyridin-3-yl)-6-(3-hydroxy-3-methylbut-1-yn-1-yl)pyrazolo[1,5-a]pyridine-3-carbonitrile] | 22.6 | – | – | – | 23 | 73 | 0.66 | 0.74 | 0.31 | 132.34 ± 19.40 | 110.35 | 118.64 ± 84.34 |
| C#C[C@@](C)(O)COc1cc(-c2ccc(N3CC4CC(C3)N4Cc3ccc(OC)nc3)nc2)c2c(C#N)cnn2c1 [Embodiment 63, 6-(((R)-2-hydroxy-2-methylbut-3-yn-1-yl)oxy)-4-(6-(6-((6-methoxypyridin-3-yl)methyl)-3,6-diazabicyclo[3.1.1]heptan-3-yl)pyridin-3-yl)pyrazolo[1,5-a]pyridine-3-carbonitrile] | 11.1 | 126.13 ± 17.24 | 94.66 | 219.86 ± 64.31 | 21.7 | 63 | 0.21 | 0.24 | 0.34 | – | – | – |
| COc1ccc(CN2C3CC2CN(c2ccc(-c4cc(N5CC(C)(C#N)C5)cn5ncc(C#N)c45)cn2)C3)cn1 [Embodiment 77, 6-(3-Cyano-3-methylazetidin-1-yl)-4-(6-(6-((6-methoxypyridin-3-yl)methyl)-3,6-diazabicyclo[3.1.1]heptan-3-yl)pyridin-3-yl)pyrazolo[1,5-a]pyridine-3-carbonitrile] | 4.79 | 101.59 ± 36.86 | 159.80 | 40.84 ± 53.92 | 6.9 | 19 | 0.41 | 0.49 | 0.37 | – | – | – |
